Among the data in patent US20200338084A1, “INHIBITORS OF LOW MOLECULAR WEIGHT PROTEIN TYROSINE PHOSPHATASE (LMPTP) AND USES THEREOF” (Sanford Burnham Prebys Medical Discovery Institute, priority 2018, published 2020) are IC50 values, retold here.

This experiment has as its target T1, human LMPTP-A (Homo sapiens, UniProt P24666).
T1 sequence (P24666 1-158): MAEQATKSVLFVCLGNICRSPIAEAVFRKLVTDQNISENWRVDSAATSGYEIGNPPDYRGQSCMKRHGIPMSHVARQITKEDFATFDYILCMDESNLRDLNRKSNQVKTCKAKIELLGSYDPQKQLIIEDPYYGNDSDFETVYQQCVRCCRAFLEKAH
Briefly: Enzyme Assay of Inhibition of LMPTP-A. It counts as biochemical. Conditions: phosphatase assay, OMFP or pNPP substrate, 50 mM Bis-Tris pH 6.0, 37° C. Put shortly: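 Recombinant human LMPTP-A in 50 mM Bis-Tris pH 6.0, 1 mM DTT, 0.01% Triton X-100 at 37° C. Substrate OMFP read continuously by fluorescence (485/525 nm), or pNPP stopped with NaOH and read at 405 nm. IC50 taken from inhibitor concentration versus % activity plots.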

For the compound `Nc1ncn(Cc2c(Cl)cccc2Cl)c2nc(CCc3ccc(F)cc3)nc1-2` [3-[(2,6-dichlorophenyl)methyl]-8-[2-(4-fluorophenyl)ethyl]-3-hydropurine-6-ylamine], the half-maximal inhibitory concentration (IC50) was no more than 1000 nM.
For `c1ccc(-n2cnc(NCc3ccco3)c3ncnc2-3)cc1` [(2-Furylmethyl)(3-phenyl(3-hydropurin-6-yl))amine], the IC50 is no less than 20000 nM.
With `CC(c1ccccc1)c1nc2c(N)ncn(Cc3c(Cl)cccc3Cl)c-2n1` (centres unmarked) [3-[(2,6-Dichlorophenyl)methyl]-8-(phenylethyl)-3-hydropurine-6-ylamine] the figure was no more than 1000 nM; with `Nc1ncn(Cc2c(Cl)cccc2Cl)c2nc(COc3ccc(Br)cc3)nc1-2` [3-[(2,6-dichlorophenyl)methyl]-8-[(4-bromophenoxy)methyl]-3-hydropurine-6-ylamine], no more than 1000 nM; with `Cc1ccccc1-c1nc2c(N)ncn(Cc3c(Cl)cccc3Cl)c-2n1` [3-[(2,6-Dichlorophenyl)methyl]-8-(2-methylphenyl)-3-hydropurine-6-ylamine], no more than 1000 nM.
On to `COc1ccc(CNc2ncn(Cc3c(Cl)cccc3Cl)c3ncnc2-3)cc1` [{3-[(2,6-dichlorophenyl)methyl](3-hydropurin-6-yl)}[(4-methoxyphenyl)methyl]amine], for which the IC50 lay in the range of 1000 to 20000 nM.
Then `N#Cc1ccccc1-c1nc2c(N)ncn(Cc3c(Cl)cccc3Cl)c-2n1` [2-{6-Amino-3-[(2,6-dichlorophenyl)methyl]-3-hydropurin-8-yl}benzenecarbonitrile], with no more than 1000 nM.
Turning to `Nc1ncn(Cc2c(Cl)cccc2Cl)c2nc(Cl)nc1-2` [3-[(2,6-Dichlorophenyl)methyl]-8-chloro-3-hydropurine-6-ylamine], the IC50 was no less than 20000 nM.
Then `Nc1ncn(Cc2c(Cl)cccc2Cl)c2nc(-c3cccc(F)c3F)nc1-2` [3-[(2,6-dichlorophenyl)methyl]-8-(2,3-difluorophenyl)-3-hydropurine-6-ylamine], with no more than 1000 nM; and `Clc1cccc(Cn2cnc(NCc3ccco3)c3ncnc2-3)c1` [[3-(3-Chloro-benzyl)-3H-purin-6-yl]-furan-2-ylmethyl-amine], with no less than 20000 nM; and `COc1ccccc1-c1nc2c(N)ncn(Cc3c(Cl)cccc3Cl)c-2n1` [3-[(2,6-Dichlorophenyl)methyl]-8-(2-methoxyphenyl)-3-hydropurine-6-ylamine], with no more than 1000 nM.
`CN(C)c1ncn(Cc2c(Cl)cccc2Cl)c2ncnc1-2` [[3-(2,6-Dichloro-benzyl)-3H-purin-6-yl]-dimethyl-amine] displayed an IC50 of no less than 20000 nM.
With `Cc1ccccc1Cn1cnc(NCc2ccco2)c2ncnc1-2` [Furan-2-ylmethyl-[3-(2-methyl-benzyl)-3H-purin-6-yl]-amine] the figure was no less than 20000 nM.
`Cc1cccc(Nc2ncn(Cc3c(Cl)cccc3Cl)c3ncnc2-3)c1C` [{3-[(2,6-Dichlorophenyl)methyl](3-hydropurin-6-yl)}(2,3-dimethylphenyl)amine] returned an IC50 of 1000 to 20000 nM.
Then `Nc1ncn(Cc2c(Cl)cccc2Cl)c2nc(C3C4CC5CC(C4)CC3C5)nc1-2` (centres unmarked) [8-Adamantan-2-yl-3-[(2,6-dichlorophenyl)methyl]-3-hydropurine-6-ylamine], with no more than 1000 nM; and `Clc1cccc(Cl)c1Cn1cnc(NCc2ccccc2)c2ncnc1-2` [Benzyl-[3-(2,6-dichloro-benzyl)-3H-purin-6-yl]-amine], with 1000 to 20000 nM; and `Nc1ncn(Cc2ccncc2Cl)c2ncnc1-2` [3-[(3-chloro-4-pyridyl)methyl]-3-hydropurine-6-ylamine], with 1000 to 20000 nM.
`Nc1ncn(Cc2c(Cl)cccc2Cl)c2nc(-c3ccncc3)nc1-2` [3-[(2,6-Dichlorophenyl)methyl]-8-(4-pyridyl)-3-hydropurine-6-ylamine] registered a half-maximal inhibitory concentration (IC50) of no more than 1000 nM.
`Nc1ncn(Cc2nnn[nH]2)c2ncnc1-2` [3-((1H-tetrazol-5-yl)methyl)-3H-purin-6-amine] came in with an IC50 of no less than 20000 nM.
Then `N#Cc1ccc(-c2nc3c(N)ncn(Cc4c(Cl)cccc4Cl)c-3n2)cc1` [4-{6-Amino-3-[(2,6-dichlorophenyl)methyl]-3-hydropurin-8-yl}benzenecarbonitrile], with no more than 1000 nM; and `NCCCCNc1ncn(Cc2c(Cl)cccc2Cl)c2ncnc1-2` [(4-Aminobutyl){3-[(2,6-dichlorophenyl)methyl](3-hydropurin-6-yl)}amine], with 1000 to 20000 nM.
Then `Nc1ncn(Cc2ccccc2Cl)c2ncnc1-2` [3-(2-Chloro-benzyl)-3H-purin-6-ylamine], with 1000 to 20000 nM; and `Clc1cccc(Cl)c1Cn1cnc(NC2CC2)c2ncnc1-2` [Cyclopropyl-[3-(2,6-dichloro-benzyl)-3H-purin-6-yl]-amine], with 1000 to 20000 nM.
Then `Nc1ncn(Cc2c(Cl)cccc2Cl)c2nc(-c3cc(F)c(F)cc3F)nc1-2` [3-[(2,6-dichlorophenyl)methyl]-8-(2,4,5-trifluorophenyl)-3-hydropurine-6-ylamine], with no more than 1000 nM; and `Fc1cccc(CNc2ncn(Cc3c(Cl)cccc3Cl)c3ncnc2-3)c1` [[3-(2,6-Dichloro-benzyl)-3H-purin-6-yl]-(3-fluoro-benzyl)-amine], with 1000 to 20000 nM.
Regarding `Clc1ccccc1Cn1cnc(NCc2ccco2)c2ncnc1-2` [[3-(2-Chloro-benzyl)-3H-purin-6-yl]-furan-2-ylmethyl-amine], the IC50 is no less than 20000 nM.
In turn, `Nc1ncn(Cc2c(Cl)cccc2Cl)c2nc(Cc3ccc(F)cc3)nc1-2` [3-[(2,6-dichlorophenyl)methyl]-8-[(4-fluorophenyl)methyl]-3-hydropurine-6-ylamine] registered an IC50 of no more than 1000 nM.
As for `FC(F)(F)c1ccc(Nc2ncn(Cc3c(Cl)cccc3Cl)c3ncnc2-3)cc1` [3-(2,6-dichlorobenzyl)-N-(4-(trifluoromethyl)phenyl)-3H-purin-6-amine], the IC50 fell in the range of 1000 to 20000 nM.
`Clc1cccc(Cl)c1Cn1cnc(Nc2ccccc2)c2ncnc1-2` [{3-[(2,6-Dichlorophenyl)methyl](3-hydropurin-6-yl)}phenylamine] came in with an IC50 of 1000 to 20000 nM.
In turn, `Cc1cccc(-c2nc3c(N)ncn(Cc4c(Cl)cccc4Cl)c-3n2)c1` [3-[(2,6-Dichlorophenyl)methyl]-8-(3-methylphenyl)-3-hydropurine-6-ylamine] displayed an IC50 of no more than 1000 nM.
With `Oc1cccc(Nc2ncn(Cc3c(Cl)cccc3Cl)c3ncnc2-3)c1` [3-({3-[(2,6-Dichlorophenyl)methyl]-3-hydropurin-6-yl}amino)phenol] the figure was 1000 to 20000 nM.
With `N#Cc1cccc(Nc2ncn(Cc3c(Cl)cccc3Cl)c3ncnc2-3)c1` [3-({3-[(2,6-Dichlorophenyl)methyl]-3-hydropurin-6-yl}amino)benzenecarbonitrile] the figure was no less than 20000 nM.

As usually defined, the IC50 is the concentration at which inhibition is half-maximal. Higher therefore signals lower potency.
